Assay results: patent US7368576B2, “Dipeptidyl peptidase IV inhibitors and their uses as anti-cancer agents” (Probiodrug AG, priority 2001, dated 2008)
Several values for one entry are separate records, joined by “and”; a condition that tells them apart may be missing. Identical values can stand only once. Entries after “also recorded” stand apart in the source; their conditions may differ. Like-named read-outs stand apart in the source and are kept apart here. Square brackets hold non-standard residues; d marks the D form. Peptide text beside a SMILES is read from it. pY = N[C@@H](Cc1ccc(OP(=O)(O)O)cc1)C(=O)O; Hyp = O=C(O)[C@@H]1C[C@@H](O)CN1; Tic = O=C(O)[C@@H]1Cc2ccccc2CN1; Tle = CC(C)(C)[C@H](N)C(=O)O

Columns and labels:
[1] = molecular target: T1, dipeptidyl peptidase IV from porcine kidney (Sus scrofa, UniProt P22411); experiment: Ki determination, DPIV inhibition (glycylprolyl-4-nitroaniline); format: biochemical; conditions: HEPES pH7.6, 30° C.
T1 construct: dipeptidyl peptidase IV from porcine kidney; from tissue; host or cells: porcine kidney

[2] = molecular target: purified porcine DPIV (Sus scrofa, UniProt P22411); experiment: Determination of IC50 values, DPIV (Gly-Pro-pNA); format: biochemical; conditions: Gly-Pro-pNA 0.4 mM, HEPES pH7.6, 30° C.
Method: 100 μl inhibitor stock solution were mixed with 100 μl buffer (HEPES pH7.6) and 50 μl substrate (Gly-Pro-pNA, final concentration 0.4 mM) and preincubated at 30° C. Reaction was started by addition of 20 μl purified porcine DPIV. Formation of the product pNA was measured at 405 nm over 10 min using the HTS 7000Plus plate reader (Perkin Elmer) and slopes were calculated. The final inhibitor concentrations ranged between 1 mM and 30 nM. For calculation of IC50 GraFit 4.0.13 (Erithacus Software) was used.

[3] = molecular target: T2, plasma DPIV activity (Rattus norvegicus, UniProt P14740); experiment: DPIV inhibiting activity after intravasal and oral administration to Wistar rats; format: in vivo; conditions: 100 mg/kg; for In vivo DPIV-inhibition at tmax, p.o. (%): oral; for In vivo DPIV-inhibition at tmax, i.v. (%): intra-vasal (intra-arterial)
T2 construct: determination of plasma DPIV activity consisted of 80 μl reagent and 20 μl plasma sample; from tissue; host or cells: plasma of Wistar rats after i.v. or p.o. dosing
Method: Male Wistar rats (Shoe: Wist(Sho)) with a body weight ranging between 250 and 350 g were purchased from Tierzucht Schönwalde (Schönwalde, Germany).
After overnight fasting, 100 μl samples of heparinised arterial blood were collected at −30, −5, and 0 min. […] In the case of oral administration, an additional volume of 1 ml saline was injected into the arterial catheter. In the case of intra-arterial administration, the catheter was immediately flushed with 30 μl saline and an additional 1 ml of saline was given orally via the feeding tube.
All blood samples were collected into ice cooled Eppendorf tubes (Eppendorf-Netheler-Hinz, Hamburg, Germany) filled with 10 μl 1M sodium citrate buffer (pH 3.0) for plasma DPIV activity measurement. Eppendorf tubes were centrifuged immediately (12000 rpm for 2 min, Hettich Zentrifuge EBA 12, Tuttlingen; Germany): The plasma fractions were stored on ice until analysis or were frozen at −20° C. until analysis. All plasma samples were labelled with the following data: • Code number • Animal Number • Date of sampling • Time of sampling Analytical Methods
The assay mixture for determination of plasma DPIV activity consisted of 80 μl reagent and 20 μl plasma sample. […] The DPIV activity was expressed in mU/ml.

[4] = tested on: MADB106 tumor cells; experiment: In vivo cancer cell adhesion assay (CFSE labeled cells in lungs); design: species or system F344 rats; conditions: wild-type F344USA rats, single injection i.v. + i.p., 30 min after inoculation, vs. saline; fumarate
Method: Cell culture, injection of tumor cells, dissection of the animals and immunohistochemistry were conducted as previously described (von Hörsten et al., 2000). In brief, 1×10^6 MADB106 tumor cells derived from log phase of tumor growth were injected via the lateral tail vein and lungs removed at different time points thereafter. For in situ quantification of tumor cells at early time points after injection (30 min), cells were vital dye stained using the fluorescein derivate 5- (and -6)-carboxyfluorescein diacetate succinimidyl ester (CFSE) before injection.
Control sections were included in which one or both primary antibodies were omitted.
Vital dye (Carboxyfluorescein; CFSE) labeling of MADB106 tumor cells allows the quantification of tumor cells and NK cells in thick sections of lung tissue by stereology in situ (von Hörsten et al, 2000). In the present study we produced thin sections (8 μm) of the same lungs (n=10) and performed additional microscopic counting by image analysis of DE1 positive cells. This was done to further simplify the previously validated stereological quantification technique. Therefore, in the present study, the assessment of DE1 positive tumor cells in lung tissue from different substrains 30 min after tumor inoculation was carried out using image analysis approach. […] Each right upper lobe of the lungs was sectioned at 6 randomly chosen non-adjacent levels. From each level, three sections were evaluated.

[5] = molecular target: T3, PepT1 (Oryctolagus cuniculus, UniProt P36836); experiment: Inhibition of 3H-D-Phe-Ala binding to PepT1-expressing P. pastoris cells
T3 construct: expressed in transfected cells; host or cells: Pichia pastoris cells expressing PepT1 (per the assay description)
T3 sequence (P36836 1-707): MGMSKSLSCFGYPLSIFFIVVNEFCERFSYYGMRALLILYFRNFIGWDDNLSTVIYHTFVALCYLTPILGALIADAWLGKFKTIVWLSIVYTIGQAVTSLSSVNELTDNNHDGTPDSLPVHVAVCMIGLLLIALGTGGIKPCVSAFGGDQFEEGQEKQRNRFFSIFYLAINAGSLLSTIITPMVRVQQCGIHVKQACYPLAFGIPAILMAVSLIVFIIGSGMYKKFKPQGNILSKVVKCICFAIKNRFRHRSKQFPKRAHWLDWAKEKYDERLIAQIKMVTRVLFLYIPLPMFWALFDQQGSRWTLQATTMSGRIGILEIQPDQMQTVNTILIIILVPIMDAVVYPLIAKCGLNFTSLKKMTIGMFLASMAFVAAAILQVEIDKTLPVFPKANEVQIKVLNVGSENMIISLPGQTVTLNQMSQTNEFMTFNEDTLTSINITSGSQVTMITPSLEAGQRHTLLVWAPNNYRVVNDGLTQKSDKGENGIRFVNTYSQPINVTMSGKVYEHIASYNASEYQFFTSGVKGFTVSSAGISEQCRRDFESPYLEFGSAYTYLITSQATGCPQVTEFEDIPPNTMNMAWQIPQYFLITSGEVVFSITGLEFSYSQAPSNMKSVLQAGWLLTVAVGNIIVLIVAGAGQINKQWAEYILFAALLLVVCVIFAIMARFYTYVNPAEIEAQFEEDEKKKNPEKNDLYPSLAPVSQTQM
Text: (§1) Side chain-modified glutamyl thiazolidines having a structure H-Glu(X)-Thia were synthesised, with polyethylene glycol or glycine oligomers of various chain lengths being used as X (see Method A of example for description of synthesis). The binding characteristics of those derivatives and their transportability by the peptide transporter PepT1 were investigated.

[6] = tested on: PepT1; experiment: Transport at PepT1-expressing oocytes of X. leavis, two-electrode voltage clamp; format: cell-based
Text: as §1

[7] = molecular target: T4, porcine dipeptidyl peptidase II (DP II) (Sus scrofa, UniProt A0A5G2QK18); experiment: Inhibition of DPIV-like enzymes, dipeptidyl peptidase II; format: biochemical; conditions: lysylalanylaminomethylcoumarine, 30° C.; read-out: Ki against porcine dipeptidyl peptidase II
T4 construct: The enzyme used was purified from porcine kidney; from tissue; host or cells: porcine kidney
Method: DP II (3.4.14.2) releases N-terminal dipeptides from oligopeptides if the N-terminus is not protonated (McDonald, J. K., Ellis, S. & Reilly, T. J., 1966, J. Biol. Chem., 241, 1494-1501). Pro and Ala in Pi-position are preferred residues. The enzyme activity is described as DPIV-like activity, but DP II has an acidic pH-optimum. The enzyme used was purified from porcine kidney.
100 μl glutaminyl pyrrolidine or glutaminyl thiazolidine in an concentration range of 1*10^−4 M-5*10^−8 M were admixed with 100 μl μl buffer solution (40 mM HEPES, pH7.6, 0.015% Brij, 1 mM DTT), 50 μl lysylalanylaminomethylcoumarine solution (5 mM) and 20 μl porcine DP II (250fold diluted in buffer solution). Fluorescence measurement was performed at 30° C. and λexiatation=380 nm, λemission=465 nm for 25 min using a plate reader (HTS7000plus, Applied Biosystems, Weiterstadt, Germany).

T2 sequence (P14740 37-767 limits assumed): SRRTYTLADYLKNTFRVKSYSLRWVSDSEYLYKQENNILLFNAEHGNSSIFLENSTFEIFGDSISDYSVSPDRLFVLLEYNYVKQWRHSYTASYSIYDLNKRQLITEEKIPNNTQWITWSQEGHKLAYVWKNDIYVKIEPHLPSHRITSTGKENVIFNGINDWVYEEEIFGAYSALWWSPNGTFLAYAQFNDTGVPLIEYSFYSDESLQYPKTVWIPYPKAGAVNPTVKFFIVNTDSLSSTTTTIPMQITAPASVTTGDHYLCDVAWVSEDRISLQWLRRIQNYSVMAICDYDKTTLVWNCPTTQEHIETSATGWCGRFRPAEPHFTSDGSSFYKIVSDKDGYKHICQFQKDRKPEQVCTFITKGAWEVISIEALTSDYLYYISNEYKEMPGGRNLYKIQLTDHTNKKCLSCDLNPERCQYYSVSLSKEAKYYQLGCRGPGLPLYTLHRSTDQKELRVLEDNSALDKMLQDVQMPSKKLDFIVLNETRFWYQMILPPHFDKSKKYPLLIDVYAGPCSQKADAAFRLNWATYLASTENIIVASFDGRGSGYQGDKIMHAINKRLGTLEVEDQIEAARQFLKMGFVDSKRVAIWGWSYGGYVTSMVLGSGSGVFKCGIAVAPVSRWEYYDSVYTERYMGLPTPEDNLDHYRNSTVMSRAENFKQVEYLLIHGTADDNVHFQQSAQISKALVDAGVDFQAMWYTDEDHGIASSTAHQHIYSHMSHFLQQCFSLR
Chain of purified porcine DPIV (P22411 whole entry): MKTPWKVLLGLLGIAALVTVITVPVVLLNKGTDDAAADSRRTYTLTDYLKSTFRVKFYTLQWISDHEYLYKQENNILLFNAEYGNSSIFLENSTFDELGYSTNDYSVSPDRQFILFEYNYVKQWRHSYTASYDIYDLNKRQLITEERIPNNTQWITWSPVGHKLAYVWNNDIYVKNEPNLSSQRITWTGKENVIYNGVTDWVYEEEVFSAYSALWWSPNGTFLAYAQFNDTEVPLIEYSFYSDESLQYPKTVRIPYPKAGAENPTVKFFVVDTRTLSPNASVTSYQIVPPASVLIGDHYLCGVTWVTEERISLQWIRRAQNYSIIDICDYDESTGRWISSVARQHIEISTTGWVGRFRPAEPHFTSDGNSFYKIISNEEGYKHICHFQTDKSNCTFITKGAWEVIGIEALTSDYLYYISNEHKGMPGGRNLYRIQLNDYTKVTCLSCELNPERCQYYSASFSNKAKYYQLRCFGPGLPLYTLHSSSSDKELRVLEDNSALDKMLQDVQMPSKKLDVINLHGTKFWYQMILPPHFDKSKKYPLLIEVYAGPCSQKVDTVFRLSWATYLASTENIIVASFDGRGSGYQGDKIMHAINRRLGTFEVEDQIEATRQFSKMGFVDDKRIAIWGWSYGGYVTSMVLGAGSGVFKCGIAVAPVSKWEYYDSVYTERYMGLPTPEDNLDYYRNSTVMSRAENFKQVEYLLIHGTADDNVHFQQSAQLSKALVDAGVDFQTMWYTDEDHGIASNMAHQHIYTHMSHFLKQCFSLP
T1 sequence (P22411 whole entry): as above
T4 sequence (A0A5G2QK18 28-502): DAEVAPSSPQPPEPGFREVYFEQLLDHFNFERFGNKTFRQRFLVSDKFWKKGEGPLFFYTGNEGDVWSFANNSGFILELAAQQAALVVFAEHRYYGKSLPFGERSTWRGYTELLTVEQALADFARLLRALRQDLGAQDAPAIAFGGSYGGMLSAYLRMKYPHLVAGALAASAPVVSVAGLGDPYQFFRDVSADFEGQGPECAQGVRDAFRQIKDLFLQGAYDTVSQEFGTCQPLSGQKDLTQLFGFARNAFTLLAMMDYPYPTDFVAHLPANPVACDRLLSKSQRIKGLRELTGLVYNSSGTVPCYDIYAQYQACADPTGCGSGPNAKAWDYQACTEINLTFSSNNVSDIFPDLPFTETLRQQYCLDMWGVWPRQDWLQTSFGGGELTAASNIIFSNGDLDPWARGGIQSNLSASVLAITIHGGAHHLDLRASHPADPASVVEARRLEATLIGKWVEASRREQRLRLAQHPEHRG

NC(CC(=O)NO)C(=O)N1CCCC1 (stereo not drawn) [H-Asp(NHOH)-pyrrolidine]
Ki [1]: 13 µM

CC[C@H](C)[C@H](NC(=O)[C@@H]1CCCN1C(=O)[C@@H](N)Cc1ccc(OP(=O)(O)O)cc1)C(=O)O [Tyr(P)-Pro-Ile] (H-[pY]-Pro-Ile-OH; N-terminus and C-terminus assumed)
IC50 [2]: 2000 µM | In vivo DPIV-inhibition at tmax, p.o. (%) [3]: no inhibition

CC(=O)C1CCCN1C(=O)C(N)C(C)C (stereo not drawn) [Val-Pro-methyl ketone]
Ki [1]: 0.0476 µM | IC50 [2]: 0.579 µM

CC(C)[C@H](N)C(=O)N1CCCC1.O=C(O)/C=C/C(=O)O [valyl pyrrolidine fumarate]
tumor cell adhesion, CFSE positive cells in lung tissue [4]: no significant effect; also recorded: significant differences vs. saline treated controls were not found

CCC(C)C(N)C(=O)N1CC1 (stereo not drawn) [H-Ile-azididine]
Ki [1]: 3.1 µM

Val-Pro-acyloxy methyl ketone
Ki [1]: 0.00105 µM | IC50 [2]: 0.0102 µM

NC(CC(=O)NO)C(=O)N1CCSC1 (stereo not drawn) [H-Asp(NHOH)-thiazolidine]
Ki [1]: 8.8 µM

CC(C)C(N)C(=O)N1CCSC1 (stereo not drawn) [H-Val-thiazolidine]
Ki [1]: 0.27 µM

Val-Pro-benzoyl methyl ketone
Ki [1]: 0.000536 µM | IC50 [2]: 0.0179 µM

CCC(C)C(N)C(=O)N1CCSC1 (stereo not drawn) [H-Ile-Thia]
EC50 [5]: 980 µM | Imax, inward currents generated by the transport [6]: 25 ± 8 nA

NC(CC(=O)O)C(=O)N1CCCC1 (stereo not drawn) [H-Asp-pyrrolidine]
Ki [1]: 0.014 µM

H-Glu(PEG)-Thia
Ki [1]: 3.11 µM | EC50 ([5]; read-out: EC50, concentration inhibiting binding of 3H-D-Phe-Ala to PepT1-expressing P. pastoris cells by 50%): > 10000 µM

NC(CCC(=O)NO)C(=O)N1CCSC1 (stereo not drawn) [H-Glu(NHOH)-thiazolidine]
Ki [1]: 1.7 µM | EC50 [5]: 3180 µM | Imax, inward currents generated by the transport [6]: 42 ± 11 nA

CC(C)(C)C(N)C(=O)C1CCCCC1 (stereo not drawn) [t-butyl-Gly-cyclohexyl ketone]
Ki [1]: 273 µM | IC50 [2]: 273 µM

Val-cyclohexyl ketone
IC50 [2]: 1000 µM

NC(CC(=O)O)C(=O)N1CCSC1 (stereo not drawn) [H-Asp-thiazolidine]
Ki [1]: 2.9 µM

CC(C)C(N)C(=O)C1CCCC1 (stereo not drawn) [Val-cyclopentyl ketone]
Ki [1]: 13.1 µM | IC50 [2]: 49 µM

CC[C@H](C)[C@H](N)C(=O)N1C[C@H](O)C[C@H]1C(=O)N[C@H](C(=O)O)[C@@H](C)CC [Ile-Hyp-Ile] (H-Ile-[Hyp]-Ile-OH; N-terminus and C-terminus assumed)
IC50 [2]: 6000 µM

NC(Cc1c[nH]cn1)C(=O)N1CCCC1 (stereo not drawn) [H-His-pyrrolidine]
Ki [1]: 3.5 µM

NC(=O)CC(N)C(=O)N1CCCC1 (stereo not drawn) [H-Asn-pyrrolidine]
Ki [1]: 12 µM

NC(CCC(=O)NO)C(=O)N1CCCC1 (stereo not drawn) [H-Glu(NHOH)-pyrrolidine]
Ki [1]: 2.8 µM

N[C@@H](CCC(=O)NCC(=O)NCC(=O)NCC(=O)NCC(=O)NCC(=O)O)C(=O)N1CCSC1 [H-Glu(Gly5)-Thia]
Ki [1]: 0.0993 µM | EC50 [5]: > 10000 µM

NC(Cc1c[nH]cn1)C(=O)N1CCSC1 (stereo not drawn) [H-His-thiazolidine]
Ki [1]: 1.8 µM

Br.CC(=O)OCC(=O)[C@@H]1CCCN1C(=O)[C@@H](NC(=O)[C@H](C)N)C(C)C [Ala-Val-Pro-acyloxy methyl ketone, H-Ala-Val-Pro-CH2O—C(O)CH3.HBr]
In vivo DPIV-inhibition at tmax, i.v. (%) [3]: 89% | In vivo DPIV-inhibition at tmax, p.o. (%) [3]: 86%

CCC(C)C(N)C(=O)C1CCCCC1 (stereo not drawn) [Ile-cyclohexyl ketone]
Ki [1]: 56.8 µM | IC50 [2]: 293 µM

CC[C@H](C)[C@H](NC(=O)[C@@H]1CCCN1C(=O)[C@@H]1Cc2ccccc2CN1)C(=O)O [Tic-Pro-Ile] (H-[Tic]-Pro-Ile-OH; N-terminus and C-terminus assumed)
IC50 [2]: 1000 µM

Val-Pro-benzothiazol methyl ketone
Ki [1]: 0.0373 µM | IC50 [2]: 0.138 µM

N[C@@H](CCC(=O)O)C(=O)N1CCSC1 [H-Glu-thiazolidine]
Ki [1]: 0.62 µM and 0.61 µM | EC50 [5]: 1100 µM | Imax, inward currents generated by the transport [6]: 35 ± 13 nA

CC(C)[C@H](N)C(=O)N1CCC[C@H]1C(=O)N[C@H](C(=O)O)C(C)(C)C [Val-Pro-t-butyl-Gly] (H-Val-Pro-[Tle]-OH; N-terminus and C-terminus assumed)
IC50 [2]: 67.5 µM

N[C@@H](CCC(=O)NCC(=O)NCC(=O)NCC(=O)O)C(=O)N1CCSC1 [H-Glu(Gly3)-Thia]
Ki [1]: 0.0192 µM | EC50 [5]: 8540 µM

NC(=O)CC(N)C(=O)N1CCSC1 (stereo not drawn) [H-Asn-thiazolidine]
Ki [1]: 3.5 µM

CCC(C)C(N)C(=O)C1CCCC1 (stereo not drawn) [Ile-cyclopentyl ketone, 1-cyclopentyl-3-methyl-1-oxo-2-pentanaminium chloride]
IC50 [2]: 38.2 µM

Br.CC(C)[C@H](NC(=O)[C@H](C)N)C(=O)N1CCC[C@H]1C(=O)COC(=O)c1ccccc1 [Ala-Val-Pro-benzoyl-methyl ketone, H-Ala-Val-Pro-CH2O—C(O)Ph.HBr]
In vivo DPIV-inhibition at tmax, i.v. (%) [3]: 97% | In vivo DPIV-inhibition at tmax, p.o. (%) [3]: 76%

NC(=O)CCC(N)C(=O)N1CCSC1 (stereo not drawn) [Gln-Thia, glutaminyl thiazolidine]
Ki [1]: 1.21 µM | IC50 [2]: 527 µM | Ki [7]: 10.7 µM
